Test results from paper PMC12376908, “Synthesis and radiolabelled evaluation of novel pyrimidine derivatives as dual α-amylase inhibitors and GIT-targeted molecular imaging probe” (RSC Advances, 2025).
≈ marks a conversion by molar mass, not a printed value.

Target: T1, α-amylase
T1 construct: gene AMY2; porcine pancreas is only a guess from usual DNSA assay practice
Test: DNSA alpha-amylase inhibition assay, nonlinear regression
Type: biochemical
Settings: enzyme source, substrate, pH and temperature not stated; triplicate

Q: With `CC(=O)C1=C(O)C=C2NC(=O)NC3=CC(O)=C(C(C)=O)C1(c1ccccc1)C23` (stereo not shown) [compound 1, 1,1′-(5,8-Dihydroxy-2-oxo-6a-phenyl-2,3,3a1,6a-tetrahydro-1H-perimidine-6,7-diyl)bis(ethan-1-one)] as the compound, how does the IC50 read?
A: 34.60 ± 1.43 µg/mL (≈ 91.4 µM)
